Results on one compound are retold here after article PMC12281424, “A Rac-specific competitive inhibitor of guanine nucleotide binding reduces metastasis in triple-negative breast cancer” (Cell Reports Medicine, 2025).

Holding throughout (type): biochemical
The target of one assay is Arg(h) (Homo sapiens, UniProt P42684). The experiment in a line: Kinase Profiler.
A further assay has as its target DRAK2(h) (Homo sapiens, UniProt O94768). Briefly: Kinase Profiler.
For a further assay, the target named is CDC42 (Homo sapiens, UniProt P60953). Briefly: GEF-stimulated nucleotide exchange. Details: Full-length RAC2, RHOG, RHOA and CDC42 were purified as previously described; made in house; TIAM DH-PH in E. coli Rosetta (DE3) pLysS. The conditions noted are these: 10^-5 M. The text has this:
Figure 4 A41 selectively impairs RAC protein activation (A) Representative surface plasmon resonance (SPR) sensograms of binding of immobilized RHOA or CDC42 with indicated increasing concentrations of A41 (N > 3). (B) Effect of A41 on GEF-stimulated RAC2, RHOG, RHOA, and CDC42 nucleotide exchange. […] Kobs is expressed as mean ± SEM. ∗p < 0.001 vs. control. (C) Effect of A41 on RAC1 G30S activation. […] The GEF TRIO was used to induce nucleotide exchange (N = 3). Data are expressed as mean ± SEM. (D) Immunoblot analysis and associated quantification of RAC-GTP level and total RAC expression in NIH-3T3 fibroblasts expressing RAC wild-type (RAC1 WT) or RAC1 oncomutants (RAC1 P29S and RAC1b) in the absence (Ctrl) and presence of A41 (10 μM). RAC activation was measured as the ratio of RAC-GTP to total RAC and expressed relative to Ctrl condition. Data are presented as mean ± SEM. ∗∗∗p < 0.001 vs. controls.
Full-length RAC1 carrying a 6xHis tag in C-terminus was purified as previously described.[64] […] Specific exchange activity toward RHOA determined by fluorescence kinetics is 0.04 s^−1M^−1.
Nucleotide exchange kinetics were measured by recording the increase in fluorescence following the association of mant-GTP on GDP-bound RHO protein or the decay in fluorescence following the dissociation of mant-GDP pre-loaded onto the RHO protein (λEx = 360 nm, λEm = 440 nm) as previously described.[39] […]

DRAK2(h), sequence (O94768 whole entry): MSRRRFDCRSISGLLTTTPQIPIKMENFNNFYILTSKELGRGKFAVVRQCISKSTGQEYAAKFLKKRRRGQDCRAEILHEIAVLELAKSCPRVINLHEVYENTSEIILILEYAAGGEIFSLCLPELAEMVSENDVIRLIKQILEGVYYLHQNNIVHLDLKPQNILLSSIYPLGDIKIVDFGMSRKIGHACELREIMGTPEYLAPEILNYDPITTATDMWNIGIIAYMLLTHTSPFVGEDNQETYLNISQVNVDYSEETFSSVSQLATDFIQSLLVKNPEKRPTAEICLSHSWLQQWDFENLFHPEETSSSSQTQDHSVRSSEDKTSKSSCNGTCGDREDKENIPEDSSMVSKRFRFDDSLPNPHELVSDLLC
CDC42, sequence (P60953 whole entry): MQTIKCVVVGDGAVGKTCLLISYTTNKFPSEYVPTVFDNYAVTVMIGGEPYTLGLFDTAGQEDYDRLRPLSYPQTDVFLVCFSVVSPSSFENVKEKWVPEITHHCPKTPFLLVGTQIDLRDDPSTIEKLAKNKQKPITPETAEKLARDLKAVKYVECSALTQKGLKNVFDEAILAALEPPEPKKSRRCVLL
Arg(h), sequence (P42684 whole entry): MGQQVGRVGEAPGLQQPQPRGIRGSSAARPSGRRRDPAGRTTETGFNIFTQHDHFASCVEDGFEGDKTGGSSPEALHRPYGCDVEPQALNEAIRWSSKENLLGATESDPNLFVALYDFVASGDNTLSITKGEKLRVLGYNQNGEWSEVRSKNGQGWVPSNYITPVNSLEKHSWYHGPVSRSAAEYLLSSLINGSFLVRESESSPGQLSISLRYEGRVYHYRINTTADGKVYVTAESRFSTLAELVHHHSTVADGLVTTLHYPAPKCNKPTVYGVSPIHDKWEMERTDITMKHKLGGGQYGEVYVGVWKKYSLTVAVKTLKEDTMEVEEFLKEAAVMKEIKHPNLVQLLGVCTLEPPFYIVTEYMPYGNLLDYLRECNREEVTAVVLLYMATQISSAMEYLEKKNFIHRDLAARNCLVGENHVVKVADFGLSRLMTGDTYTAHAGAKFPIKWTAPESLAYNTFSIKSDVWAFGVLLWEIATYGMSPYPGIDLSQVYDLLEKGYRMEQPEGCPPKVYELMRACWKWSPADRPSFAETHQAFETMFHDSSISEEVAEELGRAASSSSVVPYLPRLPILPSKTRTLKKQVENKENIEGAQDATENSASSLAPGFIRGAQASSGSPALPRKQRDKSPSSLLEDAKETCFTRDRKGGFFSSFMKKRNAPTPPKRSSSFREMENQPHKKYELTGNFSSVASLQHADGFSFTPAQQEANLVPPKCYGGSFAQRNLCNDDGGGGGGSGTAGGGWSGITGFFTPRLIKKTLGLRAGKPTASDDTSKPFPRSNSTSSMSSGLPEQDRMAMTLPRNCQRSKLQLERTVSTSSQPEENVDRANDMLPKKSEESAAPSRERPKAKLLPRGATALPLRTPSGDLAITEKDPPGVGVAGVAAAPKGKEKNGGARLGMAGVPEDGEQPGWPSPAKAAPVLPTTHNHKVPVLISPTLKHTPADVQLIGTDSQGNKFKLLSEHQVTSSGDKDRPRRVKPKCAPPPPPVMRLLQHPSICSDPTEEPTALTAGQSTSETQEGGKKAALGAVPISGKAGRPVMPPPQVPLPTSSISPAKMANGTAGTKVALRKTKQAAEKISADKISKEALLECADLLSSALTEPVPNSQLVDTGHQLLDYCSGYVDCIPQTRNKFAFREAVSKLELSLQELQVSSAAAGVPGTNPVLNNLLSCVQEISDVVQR
Description for Arg(h): (§1) Blood cell counts, kinase profiler, safety screen, bacterial cytotoxicity, Ames, micronucleus assays were performed by the company Eurofins (France). The kinase profiler was performed by the company Eurofins (Discovery, Panlab and Cerep).
Description for DRAK2(h): as §1

For `COc1ccc(OC)c(NS(=O)(=O)c2ccc(NC(=O)CCSc3ccc(C)cc3)cc2)c1` [Compound A41], the entries for the “Activity(%)” value at Arg(h) and at DRAK2(h) were 122% and 90%, respectively. The “activation of CDC42 induced by TIAM DH-PH” value at CDC42 is given as “did not change the activation”.
